Measured values: article PMC3928151 (ACS chemical biology, 2013)

Target: CaCrg1 (Candida albicans, UniProt A0A1D8PSY8)
Experiment: […] methyl transfer, acid-labile volatility
Format: biochemical
Settings: 0.2 mM cantharidin, 20 µM S-adenosyl-[methyl-14C]-L-methionine, 0.1 M sodium phosphate pH 7.4, 30 °C, 120 min

SMILES: C[C@@]12C(=O)OC(=O)[C@]1(C)[C@H]1CC[C@@H]2O1 [cantharidin]
- 14C methyl transfer, acid-labile volatility (14C-methanol): demonstrating that CaCrg1 is a functional MTase methylating cantharidin in vitro
